Measured values: ChEMBL document CHEMBL1828536, “The impact of fatty acids on the antibacterial properties of N-thiolated β-lactams” (2011)
In brackets after ≈: the same amount, converted by molar mass.

Legend:
Format in all cases: functional
[1] = test system: Staphylococcus aureus; assay: Antimicrobial activity against methicillin-resistant Staphylococcus aureus using tryptone soy broth
[2] = test system: Staphylococcus aureus; assay: Antimicrobial activity against methicillin-resistant Staphylococcus aureus using tryptone soy broth in presence of oleic acid
[3] = test system: Staphylococcus aureus; assay: Antimicrobial activity against methicillin-resistant Staphylococcus aureus using tryptone soy broth in presence of tween-80
[4] = test system: Staphylococcus aureus; assay: Antimicrobial activity against methicillin-resistant Staphylococcus aureus using tryptone soy broth in presence of bovine serum albumin

SMILES | MIC [1] | MIC [2] | MIC [3] | MIC [4]
CCC(C)SN1C(=O)[C@H](OC)[C@@H]1c1ccccc1Cl (some centres not stated) | 1000 µg/mL (≈ 3340 µM) | 2000 µg/mL | 3000 µg/mL | –
Oc1cc(Cl)ccc1Oc1ccc(Cl)cc1Cl [TRICLOSAN] | 20 µg/mL (≈ 69.1 µM) | 2000 µg/mL | > 10000 µg/mL | 20 µg/mL
